# Laboratory results: patent US10035791B2, “Bicyclic compound and pharmaceutical composition thereof for treating stroke and use thereof” (China Medical University, priority 2016, dated 2018)
# What was measured:
# [1] = tested on: primary cortical cultures (PCCs); assay: Lactate dehydrogenase (LDH) release rate analysis, H2O2-treated PCCs; assay type: cell-based, C57BL/6 mice; details: for LDH release rate of the PCCs treated with H2O2: compound 100 μM, 10^-4 mol/L H2O2, 24 hours, FIG. 1F; for concentration at which the LDH release rate of the PCCs is reduced most: tested 0.1, 1, 10 and 100 μM, FIG. 1G
# Method: H2O2 can cause an oxidative damage to cells and a destruction of the cell membrane, and consequently the LDH is released into medium. For that reason, the lower rate of the LDH released into the culture medium is represented the fewer damaged cells and better cell protection effect of sample.
# Test cells are primary cortical cultures (PCCs) in this example. The PCCs are prepared from cerebral cortexes of gestation day 17 embryos from C57BL/6 mice as described previously (Cell Death Differ 2008; 15: 143-151). The PCCs are maintained under serum-free conditions in neurobasal medium (Invitrogen), supplemented with B-27 supplement (2%; invitrogen), glutamine (0.5 mM; Sigma Aldrich), glutamate ([…]; Sigma Aldrich), penicillin (100 U/ml) and streptomycin ([…]; Invitrogen). At 4 days in vitro, half of the medium is removed and replaced with fresh medium without glutamate. The cultures are maintained in a humidified incubator at 37° C. with 5% CO2. At 7 days in vitro, the PCCs are used for experimentation.
# The PCCs are seeded in a 24-well plate and are allowed to stand for 20 minutes. […] The PCCs are maintained at 37° C. in a humidified atmosphere of 5% CO2 for 24 hours. After incubation, the culture medium is collected and washed twice with phosphate buffered saline (PBS), and then are analyzed the LDH activity in the culture medium by using LDH Cytotoxicity Detection Kit (TaKaRa Bio Laboratories, Japan) to calculate the percentage cytotoxicity, which is represented the situation of cells damage, of the PCCs. The lower percentage cytotoxicity presents the lower LDH activity detected and less severe of cells damages, which indicates the better cell protection effect of the sample. The LDH activity is measured by a colorimetry. After a reaction between enzyme and particular substrate, an absorbance of the reaction solution and the LDH activity is linearly correlated. The LDH activity (U/10^−3 L) is calculated by a reduced optical density slope at a wavelength of 340 nm within three minutes. A lactate dehydrogenase activity unit is defined as a catalytic consumption of […] NADH per minute.
# ischemic rats = assay: Volume of the infarction after cerebral ischemia, magnetic resonance imaging (MRI); assay type: in vivo, Sprague-Dawley (SD) rats; details: 30 mg/kg, 7 days after the injection, FIGS. 18A, 18B
# Source text: The ischemic rats are induced by an ischemia-reperfusion model to simulate transient focal cerebral ischemia in rats. Test animals are male Sprague-Dawley (SD) rats weighing 250-300 g. The rats are anesthetized with chloral hydrate (0.4 g/kg IP) and subjected to cerebral ischemia. The ischemia-reperfusion model is induced by ligations of bilateral common carotid arteries (CCAs) and a right middle cerebral artery (MCA). The bilateral CCAs are clamped with non-traumatic arterial clips, and the right MCA is ligated with an 10-0 nylon suture. After 90 minutes ischemia, the suture on the MCA and the arterial clips on CCAs are removed to allow reperfusion. Core body temperature is monitored with a thermistor probe (Hewlett-Packard Model 21090A probe, Hewlett-Packard Company, Andover, Mass.), and maintained at 37° C. with a heating pad during anesthesia. After recovery from anesthesia, rat body temperature is maintained at 37° C. with a heat lamp.
# Further, the ischemic rats are assigned into 5 groups, 4 test groups and 1 control group. The ischemic rats of the test groups are injected with 1 mg/kg of the Compound 1, 30 mg/kg of the genipin, 1 mg/kg of the Compound 1 and 100 mg/kg of 2-ME2, and 1 mg/kg of the Compound 1 and the LV-Bmi-1-sh, respectively. The ischemic rats of the control group are injected with the vehicle. At 7 days after the injection, the ischemic rats of the different groups are anesthetized, and the volume of the infarction thereof is assessed by a magnetic resonance imaging (MRI).
SMILES,LDH release rate of the PCCs treated with H2O2 [1],concentration at which the LDH release rate of the PCCs is reduced most [1],area of the largest infarction (MRI) (ischemic rats),volume of the infarction (MRI) (ischemic rats)
COC(=O)C1=CO[C@@H](O)[C@@H]2C(COC(=O)[C@H](Cc3ccccc3)NC(=O)OC(C)(C)C)=CC[C@H]12 [Compound 3],lower LDH release rate,100 µM,–,–
COC(=O)C1=CO[C@@H](OC(=O)[C@@H](N)Cc2ccccc2)[C@@H]2C(COC(=O)[C@@H](N)Cc3ccccc3)=CC[C@H]12 [Compound 15],lower LDH release rate,100 µM,–,–
COC(=O)C1=CO[C@@H](OC(=O)[C@@H](N)Cc2ccccc2)[C@@H]2C(CO)=CC[C@H]12 [Compound 16],–,100 µM,–,–
"COC(=O)C1=CO[C@@H](O)[C@@H]2C(CO)=CC[C@H]12 [genipin, reference compound]",–,–,reduced,reduced
